pEC50, pKi: −log10 of the molar value. The source made the active and inactive calls. The calls are words filed in the database; no cut-off is given here.
Tests used:
[1] = target: 5-hydroxytryptamine receptor 2A (Homo sapiens, UniProt P28223)
[2] = target: 5-hydroxytryptamine receptor 5A (Homo sapiens, UniProt P47898); experiment: Binding affinity to 5HT5A receptor (unknown origin) by radioligand displacement assay
[3] = target: T1, 5-hydroxytryptamine receptor 3A (Homo sapiens, UniProt P46098); experiment: Binding affinity to 5HT3 receptor (unknown origin) by radioligand displacement assay
T1 sequence (P46098 whole entry): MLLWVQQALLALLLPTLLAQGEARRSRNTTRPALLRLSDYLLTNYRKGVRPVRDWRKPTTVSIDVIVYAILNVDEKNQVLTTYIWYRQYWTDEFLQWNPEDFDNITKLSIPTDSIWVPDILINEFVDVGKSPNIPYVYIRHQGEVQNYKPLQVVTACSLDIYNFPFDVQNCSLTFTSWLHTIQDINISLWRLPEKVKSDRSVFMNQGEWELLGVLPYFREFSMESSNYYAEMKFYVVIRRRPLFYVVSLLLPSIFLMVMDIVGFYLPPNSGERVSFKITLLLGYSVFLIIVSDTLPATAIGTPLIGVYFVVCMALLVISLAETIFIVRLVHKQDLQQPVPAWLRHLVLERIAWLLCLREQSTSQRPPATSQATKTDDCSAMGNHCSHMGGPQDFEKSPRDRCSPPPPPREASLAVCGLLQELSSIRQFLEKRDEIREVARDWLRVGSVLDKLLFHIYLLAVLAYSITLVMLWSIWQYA

[4] = target: T2, Kappa-type opioid receptor (Homo sapiens, UniProt P41145); experiment: Binding affinity to kappa opioid receptor (unknown origin) by radioligand displacement assay
Mu-type opioid receptor = Mu-type opioid receptor (Homo sapiens, UniProt P35372); experiment: Displacement of [3H]DAMGO from mu opioid receptor (unknown origin) expressed in CHO cell membrane by competitive radioligand binding assay; assay type: cell membranes
[5] = target: T2, Kappa-type opioid receptor; experiment: Agonist activity at human kappa opioid receptor expressed in CHO-K1 cells assessed as inhibition of forskolin-stimulated cAMP accumulation by HitHunter assay based luminescence analysis; assay type: functional, cell-based
[6] = target: 5-hydroxytryptamine receptor 2B (Homo sapiens, UniProt P41595); experiment: Binding affinity to 5HT2B receptor (unknown origin) by radioligand displacement assay
[7] = target: T2, Kappa-type opioid receptor; experiment: Displacement of [3H]U69593 from kappa opioid receptor (unknown origin) expressed in human U2OS cell membrane by competitive radioligand binding assay; assay type: cell membranes
[8] = target: Voltage-gated inwardly rectifying potassium channel KCNH2 (Homo sapiens, UniProt Q12809); experiment: Binding affinity to hERG by radioligand displacement assay; assay type: toxicity
[9] = Binding affinity to alpha7 […] receptor (unknown origin) by radioligand displacement assay; design: species or system Homo sapiens
[10] = target: T3, Alpha-1D adrenergic receptor (Homo sapiens, UniProt P25100); experiment: Binding affinity to alpha1D adrenergic receptor (unknown origin) by radioligand displacement assay
T3 sequence (P25100 whole entry): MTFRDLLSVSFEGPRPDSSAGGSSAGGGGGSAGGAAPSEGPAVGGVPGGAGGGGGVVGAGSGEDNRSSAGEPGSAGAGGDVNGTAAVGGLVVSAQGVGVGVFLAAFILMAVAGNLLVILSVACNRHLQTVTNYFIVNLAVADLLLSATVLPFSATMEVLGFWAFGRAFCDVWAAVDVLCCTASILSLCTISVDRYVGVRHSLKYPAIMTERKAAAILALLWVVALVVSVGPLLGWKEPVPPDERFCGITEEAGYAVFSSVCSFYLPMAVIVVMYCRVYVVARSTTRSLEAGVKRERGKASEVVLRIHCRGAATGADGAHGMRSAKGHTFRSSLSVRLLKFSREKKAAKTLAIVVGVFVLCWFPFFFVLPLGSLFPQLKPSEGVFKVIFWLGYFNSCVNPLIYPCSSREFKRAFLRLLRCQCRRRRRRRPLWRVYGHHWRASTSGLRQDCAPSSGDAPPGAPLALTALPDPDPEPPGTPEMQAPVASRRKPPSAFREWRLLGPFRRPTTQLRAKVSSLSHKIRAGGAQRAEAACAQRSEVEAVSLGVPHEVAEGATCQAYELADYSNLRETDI

[11] = Binding affinity to Sigma2 opioid receptor (unknown origin) by radioligand displacement assay; design: species or system Homo sapiens
[12] = target: Atypical chemokine receptor 3 (Homo sapiens) (UniProt P25106); experiment: Agonist activity at CXCR7 receptor (unknown origin) assessed as beta arrestin2 recruitment at >=3 uM by PRESTO-Tango assay; assay type: functional; details: filed as agonist
[13] = target: Sodium-dependent noradrenaline transporter (Homo sapiens, UniProt P23975)
[14] = target: 5-hydroxytryptamine receptor 7 (Homo sapiens, UniProt P34969); experiment: Binding affinity to 5HT7A receptor (unknown origin) by radioligand displacement assay
[15] = target: T4, Alpha-2A adrenergic receptor (Homo sapiens, UniProt P08913); experiment: Binding affinity to alpha2A adrenergic receptor (unknown origin) by radioligand displacement assay
T4 sequence (P08913 whole entry): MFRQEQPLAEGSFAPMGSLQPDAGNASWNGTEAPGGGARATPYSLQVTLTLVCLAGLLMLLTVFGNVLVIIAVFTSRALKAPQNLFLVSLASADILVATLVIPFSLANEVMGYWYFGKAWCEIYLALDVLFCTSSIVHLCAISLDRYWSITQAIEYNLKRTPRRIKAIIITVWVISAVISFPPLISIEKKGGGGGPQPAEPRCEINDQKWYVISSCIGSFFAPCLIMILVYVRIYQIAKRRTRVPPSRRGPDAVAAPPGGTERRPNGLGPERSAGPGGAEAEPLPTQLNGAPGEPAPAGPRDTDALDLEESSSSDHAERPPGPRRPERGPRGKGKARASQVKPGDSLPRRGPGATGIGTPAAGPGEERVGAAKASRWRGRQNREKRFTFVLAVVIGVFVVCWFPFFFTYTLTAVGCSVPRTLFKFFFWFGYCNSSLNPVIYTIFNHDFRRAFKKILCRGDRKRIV

[16] = target: T5, Alpha-1A adrenergic receptor (Homo sapiens, UniProt P35348); experiment: Binding affinity to alpha1A adrenergic receptor (unknown origin) by radioligand displacement assay
T5 sequence (P35348 whole entry): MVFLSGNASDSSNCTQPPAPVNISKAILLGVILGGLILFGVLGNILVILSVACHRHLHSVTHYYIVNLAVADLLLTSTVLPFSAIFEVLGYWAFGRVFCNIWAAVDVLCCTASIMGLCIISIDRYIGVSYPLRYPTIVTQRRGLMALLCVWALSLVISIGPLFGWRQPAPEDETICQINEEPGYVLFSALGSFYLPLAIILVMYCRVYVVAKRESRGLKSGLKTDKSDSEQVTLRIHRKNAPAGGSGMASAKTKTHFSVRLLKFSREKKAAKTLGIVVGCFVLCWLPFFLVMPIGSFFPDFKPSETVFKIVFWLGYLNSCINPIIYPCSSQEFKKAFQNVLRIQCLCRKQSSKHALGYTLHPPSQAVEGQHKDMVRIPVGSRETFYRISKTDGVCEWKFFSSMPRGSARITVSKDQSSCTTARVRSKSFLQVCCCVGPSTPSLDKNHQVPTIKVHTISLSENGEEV

C/C=C1/CN2CC[C@]34C(=C(C(=O)OC)[C@H]1C[C@H]23)Nc1ccc(I)cc14 showed a pKi [1] of 5.64, a pKi [2] of 6.08 and a pKi [3] of 6.42. For the same molecule, the pKi [4] was 9.00, the pKi (Mu-type opioid receptor) was 5.44 and the pEC50 [5] was 8.24. The pKi [6] was 6.12, the pKi [7] was 10.06 and the pKi [8] was 5.96. It also gave a pKi [9] of 5.26, a pKi [10] of 5.94 and a pKi [11] of 5.65. The Activity [12] was “Active; Weak Activity Compared To Vuf11207”, the pKi [13] was 5.46 and the pKi [14] was 5.86. For the same molecule, the pKi [15] was 6.14 and the pKi [16] was 6.05.

— ChEMBL document CHEMBL6074668 (J Med Chem, 2024)
